Patent US11702428B2, “Chemical compounds as inhibitors of interleukin-1 activity” (Genentech, Inc., priority 2017, dated 2023)
Where two headings read alike, the source gives them in different places.

Experiments:
TNFα = TNFα levels of LPS and nigericin stimulated cells (counter-screen); format: cell-based, human
Method: (§1) For ELISA assays cells were seeded into 96-well plates. Post study, supernatants were removed and the levels of mature IL-1β, IL-18 and TNFα (Quantikine ELISA, R&D systems) were measured in cell conditioned media by ELISA according to manufacturer's instructions.
TNFα levels of LPS and nigericin stimulated cells is measured by HTRF assay (Cisbio, Bedford, Mass.). […] Measuring TNFalpha production also serves as a technical counter-screen to eliminate compounds that interfere with the HTRF reagents. Thus compounds that inhibit both IL-1β and TNFα levels are triaged for either being non-selective for inflammasome or interfering with the HTRF readout.

[1] = test system: LPS and nigericin stimulated cells; assay: cells; format: cell-based; settings: Homo sapiens, read-out: CTG protective IC50
Method: Viability of compound treated cells is measured using CellTiter-Glo® assay (Promega, Madison, Wis.) that measures the ATP content of cells which is proportional to the number of live cells within a well. This is a counter-screen to establish that the reduction of IL-1β levels in LPS and nigericin stimulated and compound treated cells is not due to cytotoxicity, but rather through the inhibition of the inflammasome pathway. Compounds inhibiting NRLP3 inflammasome activation ultimately increase the viability of LPS and nigericin stimulated cells by blocking NLRP3 mediated pyroptosis that would otherwise lead to cell lysis.

[2] = Human microsomal stability (Eh); format: in vitro ADME; settings: hepatic extraction ratio; 0.5 mg/mL microsomal protein, 1 μM, NADPH; liver blood flow 20.7 mL/min/kg
Method: The stock solutions of test article and positive control were prepared at a concentration of 10 mM using DMSO as diluents. All stock solutions were then diluted to working concentrations at 0.25 mM with 70% acetonitrile. The cofactor used in this study was NADPH regenerating system, that was composed of 6.5 mM NADP, 16.5 mM G-6-P, 3 U/mL G-6-P D. The quench reagent was consisted of acetonitrile containing tolbutamide and propanolol (serve as internal standard). Incubation mixtures containing 0.5 mg/mL liver microsomal protein and […] test article/positive control in 100 mM potassium phosphate buffer.
The 0-minute samples were prepared by addition of an 80 μL aliquot of each incubation mixture to 300 μL quench reagent to precipitate proteins. The samples were vortexed, and then a 20 μL aliquot of the NADPH regenerating system was added in. The reaction was initiated by addition of 80 μL of the NADPH regenerating system to 320 μL of each incubation mixture. The final incubation conditions achieved in 400 μL are: 0.5 mg/mL microsomal protein, 1 μM test article/positive control, 1.3 mM NADP, 3.3 mM glucose 6 phosphate, 0.6 U/mL glucose 6 phosphate dehydrogenase. The mixtures were incubated in a 37° C. water bath with gentle shaking. A 100 μL aliquot of each mixture was removed at 10, 30, 90 minutes to a clean 96-well plate which contains 300 μL quench reagent to precipitate proteins, and centrifuged (4000×g, 10 min). 80 μL of supernatant are taken into 96-well assay plates pre-added with 160 μL ultrapure water, and then analyzed by LC-MS/MS. Hepatic extraction ratio (Eh) values were calculated from measured in vitro clearance assuming a human liver blood flow of 20.7 mL/min/kg. Eh values of <0.3 are indicative of compounds with favorable metabolic stability.

NLRP3 inflammasome [3] = biological target: T1, NLRP3 inflammasome (Homo sapiens, UniProt Q96P20); assay: NLRP3 inflammasome activation assay in Kupffer cells (LPS priming, nigericin), IL-1β/IL-18 by ELISA; format: cell-based; settings: KCs; LPS, nigericin; read-out: KC IL-1β IC50
Excerpt: (§2) Some of the following assays were used to determine the inhibitory activity of the compounds on the NLRP3 inflammasome using a common inflammasome activation stimuli-nigericin.
Human Kupffer cells (KCs), specialized liver macrophages residing in […], were obtained by gradient isolation from liver specimens harvested post-mortem by Samsara Sciences. Cells were obtained through an IRB approved donor program by Samsara Sciences and all donors tested negative for bacterial and viral infections.
(§3) Cells were then stimulated with 10 uM Nigericin (Sigma Aldrich; InvivoGen) for 1.5 h. Plates were centrifuged at 1,500 rpm for 3 minutes to pellet cells and supernatant was transferred into new plates for subsequent experiments.
as §1

NLRP3 inflammasome [4] = biological target: T1, NLRP3 inflammasome; assay: NLRP3 inflammasome activation assay in PBMCs (LPS priming, nigericin), IL-1β by ELISA; format: cell-based; set-up: Human peripheral blood mononuclear cells (PBMCs); host or cells: primary human PBMCs from healthy donors; settings: LPS, nigericin, read-out: PBMC IL-1β IC50
Method: as §2
Human peripheral blood mononuclear cells (PBMCs), consisting of lymphocytes (T, B and NK cells), monocytes and dendritic cells, were freshly isolated from human peripheral blood from healthy donors. Cells were obtained through an IRB approved donor program by iXCells Biotechnologies where all the donors were tested for bacterial and viral infections. Cells were purified from peripheral blood using ficoll gradient centrifugation.
as §3, §1

Pharmacokinetics in mice = format: in vivo, CD-1 Mice; settings: Male CD-1 Mice; for AUC(0-t): read-out: AUC 0-24 hr
Method: The intravenous dosing solutions were administered at 1 mg/kg and were made by dissolving the test article into the formulations shown below. The oral dosing suspensions or solutions were administered at 10 mg/kg and were made by dissolving the test article in the formulations shown below. Blood samples were collected into tubes containing either K2EDTA or sodium heparin and kept chilled on ice block or wet ice immediately following collection and during processing. After centrifugation, the resulting plasma samples were stored in a freezer at −80° C. until samples were analyzed. Pharmacokinetic parameters were determined following measurement of compound concentrations in plasma using standard bioanalytical methods at timepoints ranging from 0 to 24 hours.

[5] = LPS and nigericin stimulated cells, CellTiter-Glo
[6] = mouse, plasma, PO, 10 mg/kg, 0.5% MC

T1 sequence (Q96P20 whole entry): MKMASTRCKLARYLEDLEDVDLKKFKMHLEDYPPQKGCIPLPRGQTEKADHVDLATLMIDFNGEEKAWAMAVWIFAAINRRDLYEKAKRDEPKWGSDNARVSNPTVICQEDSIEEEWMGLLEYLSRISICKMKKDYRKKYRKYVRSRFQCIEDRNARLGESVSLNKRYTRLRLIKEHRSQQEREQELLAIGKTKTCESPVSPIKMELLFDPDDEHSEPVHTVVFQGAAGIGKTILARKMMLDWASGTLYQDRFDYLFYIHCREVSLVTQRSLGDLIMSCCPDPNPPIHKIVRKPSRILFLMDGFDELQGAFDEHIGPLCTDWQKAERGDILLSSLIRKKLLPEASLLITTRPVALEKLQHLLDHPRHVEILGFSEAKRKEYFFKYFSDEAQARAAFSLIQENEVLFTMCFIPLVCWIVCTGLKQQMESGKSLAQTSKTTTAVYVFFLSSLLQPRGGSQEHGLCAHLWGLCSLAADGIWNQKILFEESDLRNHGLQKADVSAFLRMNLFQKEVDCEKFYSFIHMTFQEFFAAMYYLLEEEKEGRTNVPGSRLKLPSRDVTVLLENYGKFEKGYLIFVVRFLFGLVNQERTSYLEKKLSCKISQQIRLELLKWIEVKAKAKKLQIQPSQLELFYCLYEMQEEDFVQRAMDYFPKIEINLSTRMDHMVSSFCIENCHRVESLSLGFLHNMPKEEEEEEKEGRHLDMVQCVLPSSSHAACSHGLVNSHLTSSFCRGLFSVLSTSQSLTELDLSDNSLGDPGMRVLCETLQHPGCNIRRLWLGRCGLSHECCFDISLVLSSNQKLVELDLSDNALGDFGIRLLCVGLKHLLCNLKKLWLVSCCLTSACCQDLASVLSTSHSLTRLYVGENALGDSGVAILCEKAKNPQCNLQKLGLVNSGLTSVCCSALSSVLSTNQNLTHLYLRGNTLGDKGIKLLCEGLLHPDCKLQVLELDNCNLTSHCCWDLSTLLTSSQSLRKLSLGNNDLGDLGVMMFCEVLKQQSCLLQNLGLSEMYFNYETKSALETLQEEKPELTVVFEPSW

Compound	TNFα IC50 (PBMC or KC) (TNFα)	Human Microsomal Stability (Eh) [2]	IC50 (NLRP3 inflammasome [3])	IC50 (NLRP3 inflammasome [4])	IC50 [1, 5]	also measured
O=C(Nc1c2c(cc3c1CCC3)CCC2)NS(=O)(=O)c1cnn2c1OCCC2	No Curve	0.3	–	–	–	IC50 [1]: < 0.1 µM
CN(C)C1COc2c(S(=O)(=O)NC(=O)Nc3c4c(cc5c3CCC5)CCC4)cnn2C1 (stereo not drawn)	–	0.2	–	–	–	IC50 [1]: < 0.1 µM
CC1COc2c(S(=O)(=O)NC(=O)Nc3c4c(cc5c3CCC5)CCC4)cnn2C1 (stereo not drawn)	–	0.4	< 0.1 µM	< 0.1 µM	< 0.1 µM	–
O=C(Nc1c2c(cc3c1CCC3)CCC2)NS(=O)(=O)c1cnn2c1NCCC2	–	0.2	< 0.1 µM	< 0.1 µM	< 0.1 µM	–
Cc1c2c(c(NC(=O)NS(=O)(=O)c3cnn4c3OCCC4)c3c1CCC3)CCC2	No Curve	–	–	0.1 to 1 µM	0.1 to 1 µM	–
CO[C@H]1COc2c(S(=O)(=O)NC(=O)Nc3c4c(cc5c3CCC5)CCC4)cnn2C1	No Curve	0.3	< 0.1 µM	< 0.1 µM	< 0.1 µM	–
O=C(Nc1c2c(cc3c1CCC3)CCC2)NS(=O)(=O)c1cc2n(n1)CCOC2	No Curve	–	–	0.1 to 1 µM	0.1 to 1 µM	–
C[C@H]1COc2c(S(=O)(=O)NC(=O)Nc3c4c(cc5c3CCC5)CCC4)cnn2C1	No Curve	–	< 0.1 µM	< 0.1 µM	< 0.1 µM	–
O=C(Nc1c2c(cc3c1CCC3)CCC2)NS(=O)(=O)c1cnn2c1OCC(N1CCCC1)C2 (stereo not drawn)	–	0.6	–	< 0.1 µM	< 0.1 µM	–
CCN[C@H]1COc2c(S(=O)(=O)NC(=O)Nc3c4c(cc5c3CCC5)CCC4)cnn2C1	–	0.2	–	< 0.1 µM	< 0.1 µM	–
CNC1COc2c(S(=O)(=O)NC(=O)Nc3c4c(cc5c3CCC5)CCC4)cnn2C1 (stereo not drawn)	–	0.1	–	–	–	IC50 [1]: < 0.1 µM
CN[C@H]1COc2c(S(=O)(=O)NC(=O)Nc3c4c(c(F)c5c3CCC5)CCC4)cnn2C1	–	0.2	–	< 0.1 µM	< 0.1 µM	–
CC1(C)COc2c(S(=O)(=O)NC(=O)Nc3c4c(cc5c3CCC5)CCC4)cnn2C1 [A]	–	–	–	–	–	Bioavailability (% F) (Pharmacokinetics in mice; PO, 10 mg/kg, 0.5% MC): 64 % F; Cmax (Pharmacokinetics in mice; mouse, plasma, IV, 1 mg/kg): 9200 ng/mL; clearance (Pharmacokinetics in mice; mouse, plasma, IV, 1 mg/kg): 0.667 mL/min/kg; half-life (Pharmacokinetics in mice; mouse, plasma, IV, 1 mg/kg): 2.8 h; AUC(0-t) (Pharmacokinetics in mice; mouse, plasma, IV, 1 mg/kg): 29.2 µg·h/mL; Vd (Pharmacokinetics in mice; mouse, plasma, IV, 1 mg/kg, read-out: Vz): 0.137 L/kg; Cmax (Pharmacokinetics in mice; [6]): 22700 ng/mL; half-life (Pharmacokinetics in mice; [6]): 3.4 h; AUC(0-t) (Pharmacokinetics in mice; [6]): 186 µg·h/mL
